Consider 20 compounds from patent publication US20250074911A1, “MACROCYCLIC BTK INHIBITORS” (Crossfire Oncology Holding B.V., priority 2021, published 2025).

Assay [1] addresses full-length wt-BTK enzyme (Homo sapiens (Human), UniProt Q06187). Kind of assay: Biochemical kinase assay wt-BTK (IMAP). A digest of the protocol: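 IMAP fluorescence polarization assay: 1.2 nM enzyme pre-incubated 1 h with compound at room temperature, then 50 nM fluorescein-labeled MBP-derived peptide and 4 μM ATP added. Reaction ran 2 h at room temperature in the dark before quenching with IMAP binding solution.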

Assay [2] has as its target full-length BTK C481S enzyme (Homo sapiens (Human), UniProt Q06187, C481S). Kind of assay: Biochemical kinase assay BTK C481S (IMAP). A digest of the protocol:
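Full-length BTK C481S (1.2 nM) was pre-incubated with compound for 1 h at room temperature in the dark, then reacted with fluorescein-labelled MBP-derived peptide (50 nM) and ATP (7 μM) for 2 h. Reactions were quenched with IMAP binding solution, and IC50 values were derived from fluorescence polarization.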

The subject of assay [3] is wt-REC-1 mantle cell lymphoma cells. Kind of assay: Cell proliferation assay wt-REC-1 (ATPlite, 72 hours). Particulars: read-out: IC50 wt-REC-1. The assay is classed as cell-based. A digest of the protocol: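 Luminescent viability read over 72 h, start-of-incubation signal recorded separately to separate growth from cell death. Percentage growth referenced to compound-free 0.3% DMSO wells; IC50 from 4-parameter logistic fit.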
(Cellular ATP, detected with luciferase, serves as a proxy for viable cell number.)

Assay [4] concerns REC-1 T474I cell lines. The experiment in a line: Cell proliferation assay REC-1 BTK T474I knock-in cells (ATPlite, 72 hours). The assay is classed as cell-based. Particulars: 72 hours, read-out: IC50 REC-1 T474I. A digest of the protocol: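 REC-1 cells carrying CRISPR knock-in mutant BTK, single-cell cloned and sequence-confirmed, were exposed to compound for 72 h and read by ATPlite luminescence. Percentage growth was calculated against the signal at the start of incubation and against untreated 0.3% DMSO wells as maximum growth.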

In assay [5] the test system is wt-TMD8 diffuse large B-cell lymphoma cells. Kind of assay: Cell proliferation assay wt-TMD8 (ATPlite, 120 hours). The class given is cell-based. Particulars: wt-TMD8 cells, 120 hours, ATPlite, read-out: IC50 wt-TMD8. An outline of the steps: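 wt-TMD8 DLBCL cells, 1600 per well in RPMI-1640 with 10% FBS, rested ≥5 h then exposed to compound for 120 h at 37° C, 5% CO2. Viability read by ATPlite luminescence; percentage growth calculated relative to start-of-incubation signal and untreated 0.3% DMSO maximum growth.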

Assay [6] addresses BTK T474I (Homo sapiens (Human), UniProt Q06187, T474I). Kind of assay: Binding kinetics measurements (Surface Plasmon Resonance) on BTK T474I. Particulars: target residence time, SPR. The protocol:
(§1) Binding kinetics measurements on wt-BTK, BTK […], BTK […], BTK […] and BTK […] (Surface Plasmon Resonance) Streptavidin-coated chips (Cat. No. BR100531), disposables and maintenance kits for Biacore were purchased from Cytiva (Eindhoven, The Netherlands). […] Remaining streptavidin was blocked with biocytin. Immobilization was performed at 4° C. Subsequent assay steps were conducted at 22° C. After changing buffer to Biacore buffer with 1% (v/v) dimethylsulfoxide (DMSO), a pre-run was performed for a period of at least 30 min at a flow rate of 30 μl/min to obtain a stable surface. The kinetic constants of the compounds were determined with single cycle kinetics with five consecutive injections with an increasing compound concentration with ranges of 3.16-316 nM. […] To circumvent problems of mass transport limitation, a flow rate of 30 μl/min was used. A blank run with the same conditions was performed before the compound was injected. The SPR sensorgrams were analyzed with Biacore Evaluation Software by using a method of double referencing. First the reference channel was subtracted from the channel containing immobilized protein. Subsequently, the reference curve obtained with buffer injections was subtracted. […] Compounds that bound according to an induced fit model were fitted with a two-state reaction model. The kinetic constants (ka, […], KD) of duplicates were geometrically averaged. […] Target residence for an induced fit model was calculated as described (Tummino and Copeland, 2008).

Assay [7] concerns the target wt-BTK (Homo sapiens (Human), UniProt Q06187). Kind of assay: Binding kinetics measurements (Surface Plasmon Resonance) on wt-BTK. Particulars: target residence time, SPR. The protocol: as §1

The structures appear in SMILES notation. Where two headings read alike, the source gives them in different places. Where only a bound is given, the exact number is not on record here.

full-length BTK C481S enzyme, sequence (Q06187 whole entry C481S): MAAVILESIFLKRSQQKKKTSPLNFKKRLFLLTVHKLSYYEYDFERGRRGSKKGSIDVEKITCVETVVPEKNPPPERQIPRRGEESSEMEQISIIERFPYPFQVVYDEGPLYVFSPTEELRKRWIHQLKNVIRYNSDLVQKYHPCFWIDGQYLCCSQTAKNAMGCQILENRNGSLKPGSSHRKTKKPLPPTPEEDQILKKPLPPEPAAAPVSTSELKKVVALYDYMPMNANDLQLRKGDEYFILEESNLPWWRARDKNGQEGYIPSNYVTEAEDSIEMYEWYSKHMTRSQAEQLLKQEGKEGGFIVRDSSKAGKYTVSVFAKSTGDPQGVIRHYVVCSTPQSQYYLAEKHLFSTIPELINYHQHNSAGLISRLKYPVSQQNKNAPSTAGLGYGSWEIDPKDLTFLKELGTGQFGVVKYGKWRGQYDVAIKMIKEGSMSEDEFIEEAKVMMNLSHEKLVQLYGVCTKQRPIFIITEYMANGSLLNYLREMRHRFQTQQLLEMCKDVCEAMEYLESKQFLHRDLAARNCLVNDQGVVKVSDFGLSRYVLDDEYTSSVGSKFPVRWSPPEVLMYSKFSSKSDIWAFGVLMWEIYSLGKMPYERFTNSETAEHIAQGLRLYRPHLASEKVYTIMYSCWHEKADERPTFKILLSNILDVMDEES
full-length wt-BTK enzyme, sequence (Q06187 whole entry): as the sequence (Q06187 whole entry C481S) above, with S481C counted along it
wt-BTK, sequence (Q06187 whole entry): as the sequence (Q06187 whole entry C481S) above, with S481C counted along it
BTK T474I, sequence (Q06187 whole entry T474I): as the sequence (Q06187 whole entry C481S) above, with T474I, S481C counted along it

In the case of `C[C@@H]1CCn2nc(-c3ccc(Oc4ccccc4)cc3)c3c(N)ncc(c32)/C=C/CCCCCC(=O)N1` [Example 173], the 50% inhibitory concentration (IC50) – broadly, the midpoint of a concentration-inhibition curve – was under 5 nM in assay [1]; under 5 nM in assay [2]; under 100 nM in assay [3] (72 h); 500 to 10000 nM in assay [4] (Homo sapiens, Rec1); under 100 nM in assay [5] (B-cell).
`Nc1ncc2n3c(nc(-c4ccc(C(=O)Nc5cc(C(F)(F)F)ccn5)cc4)c13)[C@@H]1CCC[C@H](C1)NC(=O)CCOCC/C=C/2` [Example 177]: the half-maximal inhibitory concentration (IC50) is under 5 nM in assay [1]; under 5 nM in assay [2]; under 100 nM in assay [3] (72 h); 100 to 500 nM in assay [4] (Homo sapiens, Rec1); under 100 nM in assay [5] (B-cell).
Turning to `Nc1ncc2n3c(nc(-c4ccc(C(=O)Nc5cc(C(F)(F)F)ccn5)cc4)c13)[C@@H]1CCC[C@H](C1)NC(=O)CCOC/C=C/2` [Example 178], the IC50 in assay [1] was under 5 nM; in assay [2], under 5 nM; in assay [3] (72 h) it was under 100 nM; in assay [4] (Homo sapiens, Rec1) it was 100 to 500 nM; in assay [5] (B-cell), under 100 nM.
As to `COc1cc(-c2nn3c4c(cnc(N)c24)/C=C/COCCC(=O)N[C@@H]2CCC[C@@H]3C2)ccc1C(=O)Nc1cc(C(F)(F)F)ccn1` [Example 188], the half-maximal inhibitory concentration (IC50) is under 5 nM in assay [1]; under 5 nM in assay [2]; under 100 nM in assay [3] (72 h); under 100 nM in assay [4] (Homo sapiens, Rec1); under 100 nM in assay [5] (B-cell). Also, the “Tau (h) BTK T474I (Act)” value in assay [6] is given as over 24 h.
For `CC(=O)N1CC/C=C/c2cnc(N)c3c(-c4ccc(C(=O)Nc5cc(C(F)(F)F)ccn5)cc4)nn(c23)[C@@H]2CCC[C@H](C2)NC(=O)C[C@H]1C` [Example 190], the IC50 in assay [1] was under 5 nM; in assay [2], under 5 nM; in assay [3] (72 h) it was 1000 to 10000 nM; in assay [4] (Homo sapiens, Rec1) it was 500 to 10000 nM; in assay [5] (B-cell), under 100 nM.
In the case of `C[C@@H]1CC(=O)N[C@@H]2CCC[C@H](C2)n2nc(-c3ccc(C(=O)Nc4cc(F)ccn4)cc3)c3c(N)ncc(c32)/C=C/CCN1` [Example 191], the half-maximal inhibitory concentration (IC50) in assay [1] was under 5 nM; in assay [2] it was under 5 nM; in assay [3] (72 h), under 100 nM; in assay [4] (Homo sapiens, Rec1), under 100 nM; in assay [5] (B-cell) it was under 100 nM.
Consider `COc1cc(-c2nn3c4c(cnc(N)c24)/C=C/CCN[C@H](C)CC(=O)N[C@@H]2CCC[C@@H]3C2)ccc1C(=O)Nc1cc(C(F)(F)F)ccn1` [Example 194], for which the IC50 in assay [1] was under 5 nM; in assay [2], under 5 nM; in assay [3] (72 h), under 100 nM; in assay [4] (Homo sapiens, Rec1), 500 to 10000 nM; in assay [5] (B-cell) it was under 100 nM.
Consider `Nc1ncc2c3c1c(-c1ccc(C(=O)Nc4cc(F)ccn4)cc1)nn3[C@@H]1CCC[C@H](C1)NC(=O)CCCCC/C=C/2` [Example 196], for which the IC50 in assay [1] is under 5 nM; in assay [2], under 5 nM; in assay [3] (72 h) it was under 100 nM; in assay [4] (Homo sapiens, Rec1), under 100 nM; in assay [5] (B-cell), under 100 nM.
As to `COc1cc(-c2nn3c4c(cnc(N)c24)/C=C/CCCCCC(=O)N[C@@H]2CCC[C@@H]3C2)ccc1C(=O)Nc1cc(C(F)(F)F)ccn1` [Example 197], the 50% inhibitory concentration (IC50) is under 5 nM in assay [1]; under 5 nM in assay [2]; under 100 nM in assay [3] (72 h); 100 to 500 nM in assay [4] (Homo sapiens, Rec1); under 100 nM in assay [5] (B-cell).
For the compound `C[C@@H]1CC(=O)N[C@@H]2CCC[C@H](C2)c2nc(-c3ccc(C(=O)Nc4cc(C#N)ccn4)cc3)c3c(N)ncc(n23)/C=C/CCN1` [Example 206], the IC50 in assay [1] was under 5 nM; in assay [2] it was under 5 nM; in assay [3] (72 h) it was under 100 nM; in assay [4] (Homo sapiens, Rec1), 500 to 10000 nM; in assay [5] (B-cell), under 100 nM.
In the case of `C[C@@H]1CC(=O)N[C@@H]2CC[C@H](C2)c2nc(-c3ccc(C(=O)Nc4cc(C#N)ccn4)cc3)c3c(N)ncc(n23)/C=C/CCN1` [Example 208], the IC50 in assay [1] was under 5 nM; in assay [2] it was under 5 nM; in assay [3] (72 hours), 1000 to 10000 nM; in assay [4] (Homo sapiens, Rec1), 500 to 10000 nM; in assay [5] (B-cell), under 100 nM.
Turning to `Nc1ncc2n3c(nc(-c4ccc(C(=O)Nc5cc(C(F)(F)F)ccn5)cc4)c13)[C@@H]1CC[C@H](C1)NC(=O)CNCC/C=C/2` [Example 209], the half-maximal inhibitory concentration (IC50) in assay [1] was under 5 nM; in assay [2], under 5 nM; in assay [3] (72 h), under 100 nM; in assay [4] (Homo sapiens, Rec1) it was 500 to 10000 nM; in assay [5] (B-cell), under 100 nM.
Take `COc1ccc(F)cc1C(=O)NCc1ccc(-c2nc3n4c(cnc(N)c24)/C=C/CCN[C@H](C)CC(=O)N[C@@H]2CCC[C@@H]3C2)cc1` [Example 212]: the half-inhibitory concentration (IC50) in assay [1] was under 5 nM; in assay [2], under 5 nM; in assay [3] (72 h), under 100 nM; in assay [4] (Homo sapiens, Rec1) it was 500 to 10000 nM; in assay [5] (B-cell), under 100 nM.
Consider `COc1ccc(F)cc1C(=O)NCc1ccc(-c2nc3n4c(cnc(N)c24)/C=C/CCN[C@H](C)CC(=O)N[C@@H]2CC[C@@H]3C2)cc1` [Example 214], for which the IC50 in assay [1] is under 5 nM; in assay [2] it was under 5 nM; in assay [3] (72 h), 100 to 1000 nM; in assay [4] (Homo sapiens, Rec1), 500 to 10000 nM; in assay [5] (B-cell), under 100 nM.
As to `C[C@@H]1CC(=O)N[C@@H]2CC[C@H](C2)c2nc(-c3ccc(C(=O)Nc4cc(C#N)ccn4)cc3)c3c(N)ncc(n23)/C=C/CCN1` [Example 218], the concentration for half-maximal inhibition (IC50) was under 5 nM in assay [1]; under 5 nM in assay [2]; under 100 nM in assay [3] (72 hours); 500 to 10000 nM in assay [4]; under 100 nM in assay [5].
Take `COc1ccc(F)cc1C(=O)NCc1ccc(-c2nc3n4c(cnc(N)c24)/C=C/CCNCC(=O)N[C@@H]2CC[C@@H]3C2)cc1` [Example 219]: the IC50 in assay [1] is under 5 nM; in assay [2], under 5 nM; in assay [3] (72 h), 100 to 1000 nM; in assay [4] (Homo sapiens, Rec1), 500 to 10000 nM; in assay [5] (B-cell), under 100 nM.
`CC(=O)N1CC/C=C/c2cnc(N)c3c(-c4ccc(C(=O)Nc5cc(C(F)(F)F)ccn5)cc4)nc(n23)[C@@H]2CC[C@H](C2)NC(=O)C1` [Example 220]: the concentration for half-maximal inhibition (IC50) is under 5 nM in assay [1]; under 5 nM in assay [2]; 1000 to 10000 nM in assay [3] (72 h); 500 to 10000 nM in assay [4] (Homo sapiens, Rec1); under 100 nM in assay [5] (B-cell).
With `COc1ccc(F)cc1C(=O)NCc1ccc(-c2nc3n4c(cnc(N)c24)/C=C/CCN(C(C)=O)CC(=O)N[C@@H]2CC[C@@H]3C2)cc1` [Example 221], the IC50 is under 5 nM in assay [1]; under 5 nM in assay [2]; 1000 to 10000 nM in assay [3] (72 h); 500 to 10000 nM in assay [4] (Homo sapiens, Rec1); under 100 nM in assay [5] (B-cell).
Consider `Nc1ncc2n3c(nc(-c4ccc(C(=O)Nc5cc(C6CC6)ccn5)cc4)c13)[C@@H]1CC[C@H](C1)NC(=O)CCOCC/C=C/2` [Example 223], for which the IC50 in assay [1] was under 5 nM; in assay [2], under 5 nM; in assay [3] (72 h), under 100 nM; in assay [4] (Homo sapiens, Rec1) it was 100 to 500 nM; in assay [5] (B-cell) it was under 100 nM. Also, the “Tau (h) wt-BTK (Act)” value in assay [7] is listed as 2.52 h.
Consider `CC(=O)N1C[C@@H]2C[C@@H]1C(=O)NCCCCC/C=C/c1cnc(N)c3c(-c4ccc(C(=O)Nc5cc(C(F)(F)F)ccn5)cc4)nn2c13` [Example 226], for which the concentration for half-maximal inhibition (IC50) in assay [1] is under 5 nM; in assay [2] it was under 5 nM; in assay [3] (72 h) it was 1000 to 10000 nM; in assay [4] (Homo sapiens, Rec1), 500 to 10000 nM. Moreover, in assay [7], the “Tau (h) wt-BTK (Act)” value came to 2.76 h.
